Data taken from US20090312406A1, “COUMARIN COMPOUNDS AND THEIR USE FOR TREATING VIRAL INFECTION” (priority 2008, published 2009).

These molecules were tested on Influenza A/WSN/33 (H1N1) virus (assay: In vitro anti-influenza virus assay (neutralization test), cytopathic effect on MDCK cells). Conditions: MDCK cells, 72 h, lower bound (10 nM), upper in μM, read-out: IC50 (concentration reducing virus-induced cytopathic effect by 50%).
Format: cell-based
Description: Anti-influenza activities of the coumarin compounds were evaluated by measuring the ability of a test compound to inhibit the cytopathic effect induced by an influenza virus on MDCK cells. The 96-well tissue culture plates were seeded with 200 μL of MDCK cells at a concentration of 1.1×10^5 cells/mL in DMEM with 10% fetal bovine serum (FBS). The plates were incubated for 24-30 h at 37° C. and were used at about 90% confluency. Influenza A/WSN/33 (H1N1) virus (100 TCID50) was added to the cells and incubated at 35° C. for 1 h. After adsorption, the infected cell plates were overlaid with 50 μL of DMEM plus 2% FBS and a test compound with different concentrations. The plate was incubated at 35° C. for 72 h. At the end of incubation, the plates were fixed by the addition of 100 μL of 4% formaldehyde for 1 h at room temperature. After the removal of formaldehyde, the plates were stained with 0.1% crystal violet for 15 min at room temperature. The plates were washed and dried, and the density of the well was measured at 570 nm. The concentration required for a test compound to reduce the virus-induced cytopathic effect (CPE) by 50% relative to the virus control was expressed as IC50.
Compounds 1 and 95 were also tested on various influenza virus strains. Amantadine or Relenza was also tested for comparison. IC50 is defined as the concentration required for a test compound to reduce the virus-induced cytopathic effect (CPE) by 50% relative to the virus control.

Row | SMILES | IC50
1 | Cc1cc(=O)oc2c1ccc1oc(C(=O)c3ccccc3)c(-c3ccc([N+](=O)[O-])cc3)c12 [Compound 145] | 10 to 999 nM
2 | Cc1cc(=O)oc2c1ccc1oc(C(=O)c3ccccc3)c(-c3cccc(N)c3)c12 [Compound 146] | 10 to 999 nM
3 | Cc1cc(=O)oc2c1ccc1oc(C(=O)c3ccccc3)c(-c3cc(F)cc(F)c3)c12 [Compound 148] | 10 to 999 nM
4 | Cc1cc(=O)oc2c1ccc1oc(C(=O)c3ccccc3)c(-c3cc(Br)cc(Br)c3)c12 [Compound 150] | 10 to 999 nM
5 | CCCc1c(C(=O)c2ccccc2)oc2ccc3c(C)cc(=O)oc3c12 [Compound 155] | 10 to 999 nM
6 | CCCCCc1c(C(=O)c2ccccc2)oc2ccc3c(C)cc(=O)oc3c12 [Compound 156] | 10 to 999 nM
7 | CCCCCCc1c(C(=O)c2ccccc2)oc2ccc3c(C)cc(=O)oc3c12 [Compound 157] | 10 to 999 nM
8 | Cc1cc(=O)oc2c1ccc1oc(C(=O)c3ccccc3)c(-c3ccco3)c12 [Compound 159] | 10 to 999 nM
9 | Cc1cc(=O)oc2c1ccc1oc(C(=O)c3ccccc3)c(-c3cccs3)c12 [Compound 160] | 10 to 999 nM
10 | Cc1cc(=O)oc2c1ccc1oc(C(=S)c3ccccc3)c(-c3ccccc3)c12 [Compound 166] | 10 to 999 nM
11 | Cc1cc(=O)oc2c1ccc1oc(C(O)c3ccccc3)c(-c3ccccc3)c12 (stereo not shown) [Compound 172] | 10 to 999 nM
12 | Cc1cc(=O)oc2c1ccc1oc(Cc3ccccc3)c(-c3ccccc3)c12 [Compound 173] | 10 to 999 nM
13 | Cc1cc(=O)oc2c1ccc1oc(C(=O)c3cccc(OCC4CC4)c3)c(-c3ccccc3)c12 [Compound 179] | 10 to 999 nM
14 | CC(=O)Oc1cccc(C(=O)c2oc3ccc4c(C)cc(=O)oc4c3c2-c2ccccc2)c1 [Compound 180] | 10 to 999 nM
15 | Cc1cc(=O)oc2c1ccc1oc(C(=O)c3cccc(OCCCCO)c3)c(-c3ccccc3)c12 [Compound 186] | 10 to 999 nM
16 | Cc1cc(=O)oc2c1ccc1oc(C(=O)c3cccc(OCCCCCCO)c3)c(-c3ccccc3)c12 [Compound 188] | 10 to 999 nM
17 | Cc1cc(=O)oc2c1ccc1oc(C(=O)c3cccc(OCCO[Si](C)(C)C(C)(C)C)c3)c(-c3ccccc3)c12 [Compound 189] | 10 to 999 nM
18 | Cc1cc(=O)oc2c1ccc1oc(C(=O)c3ccccc3)c(-c3cccc4ccccc34)c12 [Compound 206] | 10 to 999 nM
19 | Cc1cc(=O)oc2c1ccc1oc(C(=O)c3cccc(Cl)c3)c(-c3ccc(F)cc3)c12 [Compound 222] | 10 to 999 nM
20 | C#CCOc1cccc(C(=O)c2oc3ccc4c(C)cc(=O)oc4c3c2-c2ccccc2)c1 [Compound 233] | 10 to 999 nM
21 | Cc1cc(=O)oc2c1ccc1oc(C(O)c3ccccc3)c(-c3cccc(C#N)c3)c12 (stereo not shown) [Compound 234] | 10 to 999 nM
22 | CC(=O)OCCCCCCOc1cccc(C(=O)c2oc3ccc4c(C)cc(=O)oc4c3c2-c2ccccc2)c1 [Compound 237] | 10 to 999 nM
23 | COc1cccc(C(=O)c2oc3ccc4c(C)cc(=O)oc4c3c2-c2ccccc2F)c1 [Compound 245] | 10 to 999 nM
24 | COc1cccc(C(=O)c2oc3ccc4c(C)cc(=O)oc4c3c2-c2cccc(F)c2)c1 [Compound 246] | 10 to 999 nM
25 | COc1cccc(C(=O)c2oc3ccc4c(C)cc(=O)oc4c3c2-c2cccc(C)c2)c1 [Compound 247] | 10 to 999 nM
26 | COc1cccc(C(=O)c2oc3ccc4c(C)cc(=O)oc4c3c2-c2ccc(Br)cc2)c1 [Compound 252] | 10 to 999 nM

Same assay, conditions: MDCK cells, 72 h, ranges given, read-out: IC50 (concentration reducing virus-induced cytopathic effect by 50%)

Row | SMILES | IC50
27 | Cc1cc(=O)oc2c1ccc1oc(C(=O)c3ccccc3)c(-c3ccc4ccccc4c3)c12 [Compound 147] | 1000 to 5900 nM
28 | Cc1cc(=O)oc2c1ccc1oc(C(=O)c3ccccc3)c(-c3cc(Cl)cc(Cl)c3)c12 [Compound 149] | 1000 to 5900 nM
29 | Cc1cc(=O)oc2c1ccc1oc(C(=O)c3ccccc3)cc12 [Compound 153] | 1000 to 5900 nM
30 | Cc1cc(=O)oc2c1ccc1oc(C(=O)c3ccccc3)c(C)c12 [Compound 154] | 1000 to 5900 nM
31 | Cc1cc(=O)oc2c1ccc1oc(C(=O)c3ccccc3)c(/C=C/c3ccccc3)c12 [Compound 161] | 1000 to 5900 nM
32 | Cc1cc(=O)oc2c1ccc1oc(C(=O)c3ccccc3)c(C3CCCCC3)c12 [Compound 165] | 1000 to 5900 nM
33 | Cc1cc(=O)oc2c1ccc1oc(/C(=N/O)c3ccccc3)c(-c3ccccc3)c12 [Compound 171] | 1000 to 5900 nM
34 | Cc1cc(=O)oc2c1ccc1oc(C(=O)c3cccc(OCCOCCOCCO)c3)c(-c3ccccc3)c12 [Compound 177] | 6000 to 25000 nM
35 | Cc1cc(=O)oc2c1ccc1oc(C(=O)c3cccc(OCCOCCOCCOCCCl)c3)c(-c3ccccc3)c12 [Compound 178] | 1000 to 5900 nM
36 | Cc1cc(=O)oc2c1ccc1oc(C(=O)c3cccc(OC(=O)C4CC4)c3)c(-c3ccccc3)c12 [Compound 181] | 1000 to 5900 nM
37 | C=CC(=O)Oc1cccc(C(=O)c2oc3ccc4c(C)cc(=O)oc4c3c2-c2ccccc2)c1 [Compound 182] | 1000 to 5900 nM
38 | Cc1cc(=O)oc2c1ccc1oc(C(=O)c3cccc(OCCN[C@@]45C[C@@H]6C[C@@H](C[C@@](O)(C6)C4)C5)c3)c(-c3ccccc3)c12 [Compound 183] | 6000 to 25000 nM
39 | Cc1cc(=O)oc2c1ccc1oc(C(=O)c3cccc(OCCO)c3)c(-c3ccccc3)c12 [Compound 184] | 6000 to 25000 nM
40 | Cc1cc(=O)oc2c1ccc1oc(C(=O)c3cccc(OCCCO)c3)c(-c3ccccc3)c12 [Compound 185] | 1000 to 5900 nM
41 | Cc1cc(=O)oc2c1ccc1oc(C(=O)c3cccc(OCCCCCO)c3)c(-c3ccccc3)c12 [Compound 187] | 1000 to 5900 nM
42 | Cc1cc(=O)oc2c1ccc1oc(C(=O)c3cccc(OCCCO[Si](C)(C)C(C)(C)C)c3)c(-c3ccccc3)c12 [Compound 190] | 1000 to 5900 nM
43 | Cc1cc(=O)oc2c1ccc1oc(C(=O)c3cccc(OCCCCCCO[Si](C)(C)C(C)(C)C)c3)c(-c3ccccc3)c12 [Compound 193] | 1000 to 5900 nM
44 | CC(=O)OCC1C(OCCOc2cccc(C(=O)c3oc4ccc5c(C)cc(=O)oc5c4c3-c3ccccc3)c2)OC(OC(C)=O)C(OC(C)=O)C1OC(C)=O (stereo not shown) [Compound 194] | 6000 to 25000 nM
45 | Cc1cc(=O)oc2c1ccc1oc(C(=O)c3cccc(OCCOC4OC(O)C(O)C(O)C4CO)c3)c(-c3ccccc3)c12 (stereo not shown) [Compound 195] | 6000 to 25000 nM
46 | CC(=O)OCC1OC(OCCCOc2cccc(C(=O)c3oc4ccc5c(C)cc(=O)oc5c4c3-c3ccccc3)c2)C(OC(C)=O)C(OC(C)=O)C1OC(C)=O (stereo not shown) [Compound 196] | 6000 to 25000 nM
47 | Cc1cc(=O)oc2c1ccc1oc(C(=O)c3cccc(OCCCOC4OC(CO)C(O)C(O)C4O)c3)c(-c3ccccc3)c12 (stereo not shown) [Compound 197] | 6000 to 25000 nM

Row | SMILES | IC50
48 | Cc1cc(=O)oc2c1ccc1oc(C(=O)c3cccc(OC(=O)C#Cc4ccccc4)c3)c(-c3ccccc3)c12 [Compound 201] | 1000 to 5900 nM
49 | C#CCCC(=O)Oc1cccc(C(=O)c2oc3ccc4c(C)cc(=O)oc4c3c2-c2ccccc2)c1 [Compound 202] | 1000 to 5900 nM
50 | CCCCCC#CC(=O)Oc1cccc(C(=O)c2oc3ccc4c(C)cc(=O)oc4c3c2-c2ccccc2)c1 [Compound 203] | 1000 to 5900 nM
51 | Cc1cc(=O)oc2c1ccc1oc(C(=O)O)c(-c3ccccc3)c12 [Compound 205] | 1000 to 5900 nM
52 | Cc1cc(=O)oc2c1ccc1oc(C(=O)c3ccccc3)c(-c3cccc(C(=O)O)c3)c12 [Compound 207] | 1000 to 5900 nM
53 | Cc1cc(=O)oc2c1ccc1oc(C(=O)c3ccc([N+](=O)[O-])cc3)c(-c3ccc(Br)cc3)c12 [Compound 216] | 6000 to 25000 nM
54 | Cc1cc(=O)oc2c1ccc1oc(C(=O)c3cccc(Cl)c3)c(-c3ccc(Br)cc3)c12 [Compound 217] | 6000 to 25000 nM
55 | Cc1cc(=O)oc2c1ccc1oc(C(=O)c3ccc4ccccc4c3)c(-c3ccc(F)cc3)c12 [Compound 220] | 1000 to 5900 nM
56 | Cc1cc(=O)oc2c1ccc1oc(C(=O)c3cc(F)ccc3F)c(-c3ccc(F)cc3)c12 [Compound 221] | 1000 to 5900 nM
57 | Cc1cc(=O)oc2c1ccc1oc(C(=O)c3ccccc3)c(-c3ccc(Cl)c(Cl)c3)c12 [Compound 224] | 6000 to 25000 nM
58 | Cc1cc(=O)oc2c1ccc1oc(C(O)c3ccccc3)cc12 (stereo not shown) [Compound 226] | 1000 to 5900 nM
59 | Cc1cc(=O)oc2c1ccc1[nH]c3ccccc3c12 [Compound 231] | 6000 to 25000 nM
60 | Cc1cc(=O)oc2c1ccc1oc(C(=O)c3cccc(OCCCCI)c3)c(-c3ccccc3)c12 [Compound 236] | 1000 to 5900 nM
61 | Cc1cc(=O)oc2c1ccc1oc(C(=O)c3ccccc3)c(-c3ccc(O)cc3)c12 [Compound 239] | 1000 to 5900 nM
62 | Cc1cc(=O)oc2c1ccc1oc(C(=O)c3cccc(OCCN4CCc5ccccc5C4)c3)c(-c3ccccc3)c12 [Compound 240] | 1000 to 5900 nM
63 | Cc1cc(=O)oc2c1ccc1oc(C(=O)c3cccc(OCCN4Cc5ccccc5C4)c3)c(-c3ccccc3)c12 [Compound 241] | 1000 to 5900 nM
64 | CCCCCCCCOc1cccc(C(=O)c2oc3ccc4c(C)cc(=O)oc4c3c2-c2ccccc2)c1 [Compound 243] | 6000 to 25000 nM
65 | COc1ccc(-c2c(C(=O)c3ccccc3)oc3ccc4c(C)cc(=O)oc4c23)cc1 [Compound 248] | 6000 to 25000 nM
66 | Cc1cc(=O)oc2c1ccc1oc(C(=O)c3cccc(OP(=O)(O)O)c3)c(-c3ccccc3)c12 [Compound 249] | 1000 to 5900 nM
67 | Cc1cc(=O)oc2c1ccc1oc(C(=O)c3cccs3)c(-c3ccc(Br)cc3)c12 [Compound 254] | 1000 to 5900 nM
